US20050042213A1, “Methods and pharmaceutical compositions for modulating heparanase activation and uses thereof” (InSight Biopharmaceuticals Ltd., priority 2003, published 2005)
Read-outs that look alike come from different tables or passages of the source. Each block holds one compound with its values, some of them ahead of it. Where a SMILES comes first, the peptide text is derived from it. Where no end group is shown, it is not given here. [ ]: non-standard residue; d: D form. The star is where a group is joined. Sta = CC(C)C[C@H](N)[C@@H](O)CC(=O)O; Isovaleryl = CC(C)CC(=O)*

What was measured:
HUVEC cells = experiment: Cord Formation Assay; type: cell-based; details: Homo sapiens; HUVEC cells on matrigel, 24 h; read-out: Inhibition of cord formation IC50
Method: (§1) Cord formation and cell migration assays were executed following explicit directives provided by the inventors of the present invention by the National Cancer Institute (Biological Testing Branch, Developmental Therapeutics Program, DCTD, NCI, Fairview Center, Suite 205, 1003 West 7th Street, Frederick, Md. 21701-8527).
Cord Formation Assay—Matrigel (60 μl of 10 mg/ml; Collaborative Lab # 35423) was placed in each well of an ice-cold 96-well plate. The plate was incubated at room temperature for 15 minutes and then transferred to 37° C. for 30 minutes to permit matrigel polymerization. Concomitantly with plate coating, HUVEC cells were diluted in EGM-2 (Clonetic # CC3162) at a concentration of 2×10^5 cells/ml. Each test compound was prepared at a 2 fold higher concentration than desired (5 concentration levels) using the same medium. Cells (500 μl) and 2× drug (500 μl) were mixed and 200 μl of this suspension were placed in duplicates on the polymerized matrigel. Following 24 h incubation, triplicate pictures were taken for each concentration using a Bioquant Image Analysis system. Drug effect (IC50) was assessed by comparing to untreated controls and measuring the length of cords formed and number of junctions.

β-FGF = target: T1, β-FGF (Homo sapiens, UniProt P09038); experiment: Elisa assay for binding of β-FGF to heparin; details: inhibition of β-FGF binding to heparin
T1 construct: purchased Sigma F0291
T1 sequence (P09038 143-288): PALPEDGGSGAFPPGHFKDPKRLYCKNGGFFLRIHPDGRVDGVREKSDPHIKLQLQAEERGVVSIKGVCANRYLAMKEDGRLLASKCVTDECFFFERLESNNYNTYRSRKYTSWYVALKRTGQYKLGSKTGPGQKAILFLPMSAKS
Method: Elisa assay for determination of binding of β-FGF to heparin—96 well microplates were coated overnight with Heparin-albumin (Lizard) and blocked with 1% BSA in PBS with 0.05% Tween and 0.01% thimerosal for 2 hrs. β-FGF was added to the plates at a concentration of 0.8 ng/ml and incubated for 45 min at 23-25° C. The amount of β-FGF bound to heparin was detected using anti-FGF monoclonal antibody (Sigma Cat. # F6162) at a concentration of 2.5 ng/ml and secondary antibodies Sheep anti-mouse IgG linked to horseradish peroxidase (1:3000). TMB (Pierce Cat. #34021) was used as a substrate for peroxidase.
(§2) The plates were read at 450 nm with a reference wavelength of 630 nm using a VERSAmax plate reader. […] Percent inhibition was calculated as compared with the control reactions pre-incubated with 1% DMSO only.

heparanase (H53) = target: T2, heparanase (H53) (Homo sapiens, UniProt Q9Y251, K307R); experiment: Heparanase activity inhibition (H53), DMB assay; type: biochemical; details: for IC50: heparanase activity inhibition (H53), NI = no inhibition
T2 sequence (Q9Y251 158-543 K307R limits assumed): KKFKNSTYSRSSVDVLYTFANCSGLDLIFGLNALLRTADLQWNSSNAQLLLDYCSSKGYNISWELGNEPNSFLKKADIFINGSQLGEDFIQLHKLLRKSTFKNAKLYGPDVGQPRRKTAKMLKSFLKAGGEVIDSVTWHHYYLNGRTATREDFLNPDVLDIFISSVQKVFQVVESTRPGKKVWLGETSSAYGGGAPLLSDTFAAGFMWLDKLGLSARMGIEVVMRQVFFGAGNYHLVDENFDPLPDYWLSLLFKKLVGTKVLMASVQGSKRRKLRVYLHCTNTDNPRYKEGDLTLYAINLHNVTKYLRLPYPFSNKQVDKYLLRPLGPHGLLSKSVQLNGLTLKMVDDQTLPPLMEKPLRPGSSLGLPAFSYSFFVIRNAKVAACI
T2 sequence (Q9Y251 36-109 limits assumed): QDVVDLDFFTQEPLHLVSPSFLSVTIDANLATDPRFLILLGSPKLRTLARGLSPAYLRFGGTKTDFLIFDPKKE
Method: At the end of the incubation, the cells were lysed by three consecutive cycles of freezing and thawing in a −80° C. Freezer and a 37° C. shaker. Formation of active heparanase was detected by determination of heparanase activity in DMB assay as described in patent application U.S. Pat. No. 6,190,875B.

HUVEC cell = experiment: Cell Migration Assay (Boyden chamber); type: cell-based; details: Homo sapiens, HUVEC cells, 5 h, read-out: Inhibition of chemotaxis IC50
Method: as §1
Cell Migration Assay—Migration was assessed using a 48-well Boyden chamber including 8 μm pore size collagen-coated (10 μg/ml rat tail collagen; Collaborative Laboratories) polycarbonate filters (Osmonics, Inc.). The bottom chamber wells included 27-29 μl of DMEM medium alone (baseline) or medium containing chemo-attractant (bFGF, VEGF or Swiss 3T3 cell conditioned medium). The top chambers included 45 μl of HUVEC cell suspension (1×10^6 cells/ml) prepared in DMEM+1% BSA with or without the test compound. Followinf 5 h of incubation at 37° C., the membrane was rinsed with PBS, fixed and stained in Diff-Quick solutions. The filter was placed on a glass slide with the migrated cells facing down and cells on top were removed using a Kimwipe. The testing was performed in 4-6 replicates where five fields were counted from each well. Negative unstimulated control values were subtracted from stimulated control and drug treated values. Data wad plotted as mean migrated cell±S.D. IC50 was calculated from the plotted data.

pro-heparanase (H60) [1] = target: T3, pro-heparanase (H60) (Homo sapiens, UniProt Q9Y251, K307R); experiment: Pro-heparanase activation in a cell-based assay (293 cells, DMB assay); details: inhibition of pro-heparanase activation (H60); Table 15
T3 sequence (Q9Y251 36-543 K307R): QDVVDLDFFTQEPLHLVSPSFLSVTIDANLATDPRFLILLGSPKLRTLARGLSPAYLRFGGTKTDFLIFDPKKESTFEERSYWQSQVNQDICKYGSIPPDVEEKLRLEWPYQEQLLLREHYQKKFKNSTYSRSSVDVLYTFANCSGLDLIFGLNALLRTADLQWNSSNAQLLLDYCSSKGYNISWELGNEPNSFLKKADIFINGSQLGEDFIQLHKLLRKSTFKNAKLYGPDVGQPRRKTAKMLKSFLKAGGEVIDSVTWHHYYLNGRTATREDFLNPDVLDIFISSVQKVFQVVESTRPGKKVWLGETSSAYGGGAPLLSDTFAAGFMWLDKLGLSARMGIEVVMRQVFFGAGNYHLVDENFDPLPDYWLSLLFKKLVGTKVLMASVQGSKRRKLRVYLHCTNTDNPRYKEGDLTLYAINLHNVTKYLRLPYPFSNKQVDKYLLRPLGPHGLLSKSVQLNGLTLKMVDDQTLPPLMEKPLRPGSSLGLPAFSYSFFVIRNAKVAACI

VEGF = target: T4, VEGF (Homo sapiens, UniProt P15692); experiment: Elisa assay for binding of VEGF to heparin; details: inhibition of VEGF binding to heparin
T4 sequence (P15692 27-191 isoform P15692-4): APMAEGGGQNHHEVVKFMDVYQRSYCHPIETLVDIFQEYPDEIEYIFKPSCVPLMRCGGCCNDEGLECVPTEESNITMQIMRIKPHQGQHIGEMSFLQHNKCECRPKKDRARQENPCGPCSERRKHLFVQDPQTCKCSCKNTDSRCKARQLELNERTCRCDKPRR
Method: Elisa assay for determination of binding of VEGF to heparin—96 well microplates were coated overnight with Heparin-albumin (Lizard) and blocked with 1% BSA in PBS with 0.05% Tween and 0.01% thimerosal for 2 hrs. VEGF was added to the plates at a concentration of 2 ng/ml and incubated for 45 min. at 23-25° C. The amount of VEGF bound to heparin was detected using anti-VEGF monoclonal antibody (Sigma Cat. # V4758) at a concentration of 0.26 μg/ml and secondary antibodies Sheep anti-mouse IgG linked to horseradish peroxidase (1:2000). TMB (Pierce Cat. #34021) was used as a substrate for peroxidase.
as §2

pro-heparanase (H60) [2] = target: T3, pro-heparanase (H60); experiment: Processing and activation of pro-heparanase in vitro with cathepsin B and D in the presence of heparin (Western blot, DMB assay); type: biochemical; details: cathepsin B and/or cathepsin D; for activation of pro-heparanase in vitro (heparanase activity): heparin-sepharose
Method: Western blot analysis—Western blot analysis was performed using rabbit anti-heparanase polyclonal antibodies as described in U.S. Pat. Nos. 6,177,545; 6,531,129; and 6,562,950.
Following a 17 hours incubation at room temperature, reaction products were filtered to a new plate and quantified using di-methyl-methylene-blue, as described in U.S. Pat. No. 6,190,875.
Assay mixtures contained heparin (Sigma, H3393) or heparinomimetic molecules ethane-1,2-disulfonic acid (Sigma, E2269) and heparin disaccharide IVA (Sigma, H0895) for western blot analysis or heparin sepharose beads for activation assays, in 200 mM acetate buffer, pH 5.5, 4 mM EDTA and 8 mM DTT, with either Cathepsin B, Cathepsin D or both. Following a 17 hours of incubation at room temperature, reaction products were examined by western blot analysis or filtered to a new plate and quantified using di-methyl-methylene-blue, as described in U.S. Pat. No. 6,190,875 for activation assay.

293 cell extract = experiment: Cleavage of Z-Pro-Lys-Lys-Glu-AMC (Peptide 1) by 293 cell extract and its inhibition by protease inhibitors; type: biochemical, human; set-up: % Inhibition: concentration or dose not given beside the values; details: inhibition of Z-Pro-Lys-Lys-Glu-AMC cleavage by 293 cell extract
Method: Following a 20 minutes incubation at 37° C., fluorescence released due to proteolytic activity was determined using a BMG POLARstar™ Galaxy fluorometer: excitation at 390 nm and emission at 460 nm.

Heparanase = target: T5, Heparanase (Homo sapiens, UniProt Q9Y251, K307R); experiment: Dimerization assay (H53 hetero-dimer formation, di-methyl-methylene-blue); type: biochemical
T5 sequence (Q9Y251 158-543 K307R limits assumed): T2 sequence (Q9Y251 158-543 K307R limits assumed)
T5 sequence (Q9Y251 36-109 limits assumed): T2 sequence (Q9Y251 36-109 limits assumed)
Description: Dimerization assay—Activation assay using di-methyl-methylene-blue was effected as described in U.S. Pat. No. 6,190,875.

Cathepsin B = details: value reported in the literature (M. Murata et al., FEBS Lett., 280, 307, 1991); cited from earlier work
pro-heparanase (H60) [3] = target: T3, pro-heparanase (H60); experiment: Circular dichroism spectrometry of pro-heparanase
Method: Circular Dichroism spectrometry—Circular Dichroism spectra were recorded using a JASCO 500 spetropolarimeter. Far Ultraviolet measurements (260-200 nm) were performed in a 0.1 mm demountable cuvette at 25° C., scanning at a rate of 10 nm/min. Pro-heparanase was assayed at a concentration of 0.72 mg/ml in 20 mM sodium phosphate buffer pH 6.8 supplemented with 300 mM NaCl. Effect of heparin on pro-heparanase spectra was determined at a concentration of 100 μM, and the inhibitor was added at a concentration of 15 μM. Base-line recordings were performed in the presence and absence of heparin to correct the pro-heparanase spectra.

[4] = inhibition of H53 hetero-dimer formation by H8-derived peptides, read-out: IC50 H53

Compound: O=C(O)CCCN1C(=O)C(=Cc2ccc(-c3ccc(Cl)cc3)o2)SC1=S [Compound 6]
IC50 (HUVEC cells): 3.2 µM
IC50 (β-FGF): 23.9 µM
heparanase activity inhibition (H53) in addition to inhibition of pro-heparanase activation (heparanase (H53)): dual activity
IC50 (heparanase (H53)): 36 µM
IC50 (HUVEC cell): 4 µM
IC50 (pro-heparanase (H60) [1]): 0.87 µM
IC50 (VEGF): 17.8 µM

Compound: FLILLGSPKLRTL [Compound P8-8]
IC50 (Heparanase; [4]): 8 µM

Compound: O=C(O)CCCN1C(=O)C(=Cc2ccc(-c3cccc([N+](=O)[O-])c3)o2)SC1=S [Compound 4]
IC50 (β-FGF): 53.4 µM
heparanase activity inhibition (H53) in addition to inhibition of pro-heparanase activation (heparanase (H53)): dual activity
IC50 (heparanase (H53)): 3 µM
IC50 (pro-heparanase (H60) [1]): 0.16 µM
IC50 (VEGF): 17.8 µM

Compound: CCCNC(=O)[C@H]1O[C@@H]1C(=O)N[C@H](C(=O)N1CCC[C@H]1C(=O)O)[C@@H](C)CC [CA-074]
activation of pro-heparanase in vitro (heparanase activity) (pro-heparanase (H60) [2]): inhibited this activation
% Inhibition (293 cell extract): 96%

Compound: PRFLILLGSPKLR [Compound P8-4]
IC50 (Heparanase; [4]): 2.3 µM

Compound: COCCCN1C(=O)C(=Cc2ccc(-c3ccc(Cl)cc3)o2)SC1=S [Compound 58]
IC50 (β-FGF): 0.2 µM
IC50 (pro-heparanase (H60) [1]): 0.92 µM
IC50 (VEGF): 0.2 µM

Compound: LRTLARGLSPAYL [Compound P8-5]
IC50 (Heparanase; [4]): 18 µM

Compound: O=C1/C(=C\c2ccc(-c3ccccc3Cl)o2)SC(=S)N1C1CCS(=O)(=O)C1 (stereo not shown) [Compound 59]
IC50 (HUVEC cells): 0.4 µM
IC50 (β-FGF): 0.4 µM
IC50 (HUVEC cell): 0.25 µM
IC50 (pro-heparanase (H60) [1]): 0.24 µM
IC50 (VEGF): 0.4 µM

Compound: PRFLILL [Compound P8-11]
IC50 (Heparanase; [4]): 1.4 µM

Compound: O=S(=O)(O)CCS(=O)(=O)O [Compound E2269, ethane-1,2-disulfonic acid]
processing of pro-heparanase in vitro (Western blot) (pro-heparanase (H60) [2]): allowed processing of the H60

More lines, main results first:

processing of pro-heparanase in vitro (Western blot) (pro-heparanase (H60) [2]): No processing occurred
activation of pro-heparanase in vitro (heparanase activity) (pro-heparanase (H60) [2]): inhibited this activation
Compound: CC(C)CC(=O)N[C@H](C(=O)N[C@H](C(=O)N[C@@H](CC(C)C)[C@@H](O)CC(=O)N[C@@H](C)C(=O)N[C@@H](CC(C)C)[C@@H](O)CC(=O)O)C(C)C)C(C)C [pepstatin] (Isovaleryl-VV[Sta]A[Sta]-OH)
% Inhibition (293 cell extract): 0%

IC50 (Heparanase; [4]): 7 µM
Compound: CPAYLRFGGTKTDFLIFDPLLE [Pep-7]

IC50 (Heparanase; H45-derived peptide, inhibition of H53 hetero-dimer formation, read-out: IC50 Heparanase): 21 µM
Compound: CTWHHYYLNGRTATR [Pep-25]

IC50 (Heparanase; [4]): 6 µM
Compound: DPRFLILL [Compound P8-16]

processing of pro-heparanase in vitro (Western blot) (pro-heparanase (H60) [2]): allowed processing of the H60
Compound: CC(=O)N[C@H]1C(O)O[C@H](CO)[C@@H](O[C@@H]2OC(C(=O)O)=C[C@H](O)[C@H]2O)[C@@H]1O (stereo partly shown) [heparin disaccharide IVA]

processing of pro-heparanase in vitro (Western blot) (pro-heparanase (H60) [2]): heparanase was processed by cathepsin D
conformational change in pro-heparanase (pro-heparanase (H60) [3]): significant conformational change
Compound: heparin [reference compound]
